# In patent US20210338717A1, “NANOPARTICLE DELIVERY TO A TARGET TISSUE” (THE GOVERNING COUNCIL OF THE UNIVERSITY OF TORONTO, priority 2020, published 2021):
# Test system: 4T1 tumour-bearing BALB/c mice
# Conditions: mouse, in vivo
# Protocol: 6 week old female BALB/c mice were purchased (Charles River Laboratory BALB/cAnNCrl). 4T1 cells were a generous gift from Dr. Reginald Gorczynski. 4T1 tumours were induced as described^3 into 7-week old mice. Briefly, 1 million 4T1 cells between passages 3-20 in 100 μL of serum-free, antibiotic-free RPMI (Wisent Bioproducts 350-000-EL) were injected into the right inguinal 5th mammary fat pad using a 25G needle. The needle was inserted 1 mm lateral and 3 mm caudal to the nipple, and advanced towards the nipple by 2 mm. Mice were injected with nanoparticles 2 weeks post-induction unless specified otherwise. We aimed to investigate smaller tumours to minimize confounding by the necrotic core and maximize quantification accuracy. Tumour growth was homogeneous (average 14-day tumour size and standard deviation: 0.38±0.15 g). Tumours were size-matched between treatment groups to enable %ID and %ID/g comparisons between groups.
# Mice were euthanized by isoflurane overdose followed by cervical dislocation at 2, 8, 24, or 72 hours post nanoparticle injection. Mouse organs were collected and weighed into borosilicate tubes for analysis by ICPMS^5,6. Collected organs included: heart, lungs, liver, spleen, stomach (with diet), large intestines (with diet), small intestines (with diet), kidneys, uterus, dorsal skin, and cardiac blood. For endpoint cardiac blood, mice hearts were quickly exposed by dissecting through the thoracic cavity. A 25G needle/1 mL syringe was inserted into the right ventricle of the beating heart. ˜600 μL cardiac blood was drawn then transferred to a glass tube. For reference, a control tube containing a known proportion of the injected dose was also prepared in a borosilicate tube. 800 μL of 16 M nitric acid (Caledon 7525-1-29) was added to each sample. They were digested at 80° C. in a water bath for 1 hour, and then digested overnight at 50° C. The next morning, 200 μL of 12 M hydrochloric acid (Caledon 6025-1-29) was added and the samples were digested at 80° C. for ≥1 hour. Samples were collected into polypropylene 50 mL centrifuge tubes (Biomart 110708) and then diluted to 40 mL in deionized water for a final acid concentration of 2.5% (v/v). 10 mL of these samples were then filtered through a 0.22 μm PES filter (Fisher Scientific SLGP033RS) into 15 mL centrifuge tubes (Sarstedt 62.554.002). A standard curve for elemental gold and magnesium were prepared by dilution in 2% (v/v) nitric acid and 0.5% (v/v) hydrochloric acid, with concentrations ranging from 0.0001 to 100 mg/mL, with a reference blank of 0. All samples were then quantified using a NexION 350x ICP-MS (PerkinElmer) with mass analyzer set to magnesium Mg 24, iridium Ir 192, and gold Au 197. A 500 μL injection loop was used, and each sample was mixed with carrier solution (2% (v/v) nitric acid) and iridium internal standard (1 μg/mL) before injection into the analyzer. Percent injected dose was the measured gold mass of each sample divided by the measured gold mass of the injected dose.
substance,measurement,value
gold nanoparticles,increase in absolute accumulation in the liver,6000 times
same,increase in absolute nanoparticle accumulation in tumour,"7,300,000 times"
same,liver accumulation,16 % injected dose/gram
same,"liver accumulation, large single dose vs same dose divided",reduced
same,tumour accumulation,16 % injected dose/gram
same,"tumour delivery, large single dose vs same dose divided",increased
